In brackets after ≈: the same amount, converted by molar mass. Read-outs that look alike come from different tables or passages of the source. Non-standard residues stand in square brackets, D forms with d. Residues, ends and D or L forms follow the SMILES beside them. AEEA = NCCOCCOCC(=O)O; βAla = NCCC(=O)O
Experiments:
S. aureus USA300 [1] = settings: for MIC: USA300, 24 h
Description: (§1) Antimicrobial activity of peptides was analyzed through determination of MIC parameter according to the standard microdilution technique performed on 96-well plates. Mueller-Hinton broth (MHB, Sigma Aldrich, St. Louis, MO, USA) was used as the working medium for all bacterial strains. Briefly, inoculum was prepared from freshly grown cultures of bacteria being at their exponential phase of growth. Each well of 96-well plates containing 100 µL of serially diluted peptides in PBS at desired concentration was inoculated with 100 µL of 10^5 CFU/mL of bacterial suspension. Then plates were incubated overnight 37 °C and absorbance was read at 600 nm after 24 h. Wells without peptide were treated as the positive control, while uninoculated MHB was defined as the negative control. All measurements were run in triplicates.

S. aureus Newman = settings: Newman, 24 h
Description: as §1

S. aureus ATCC 25923 = settings: ATCC 25923, 24 h
Description: as §1

[2] = test system: S. epidermidis ATCC 12228; settings: ATCC 12228, 24 h
Description: as §1

[3] = cited from earlier work
Description: The efficient antibacterial activity of the DAL-PEG-DK5 conjugate may be due to the fact that it has a higher cationic charge than DK5 (+7 vs. +6, respectively). However, a α-helicity must also play an important role in this case. According to a common view about the mechanism underlying the antimicrobial activity of AMPs, formation of hel ...

S. aureus USA300 [4] = assay: microbe, parasite or virus in culture; settings: Staphylococcus aureus, MRSA / USA300, 24 h
Description: as §1

[5] = test system: intracellular MRSA clinical isolate; settings: cited from earlier work; for MIC: MRSA clinical isolate
Description: Cumulatively, these findings encouraged us to test the ability of the peptide conjugate to kill invasive intracellular MRSA. […] In addition, ...

Compound | MIC (S. aureus USA300 [1]) | MIC (S. aureus Newman) | MIC (S. aureus ATCC 25923) | MIC [2] | also measured
CC[C@H](C)[C@H](NC(=O)COCCOCCNC(=O)[C@H](Cc1c[nH]cn1)NC(=O)CCNC(=O)[C@H](Cc1c[nH]cn1)NC(=O)CCNC(=O)[C@H](Cc1c[nH]cn1)NC(=O)CCN)C(=O)N[C@@H](CCCCN)C(=O)N[C@@H](CCCCN)C(=O)N[C@H](C(=O)N[C@@H](CC(C)C)C(=O)N[C@@H](CO)C(=O)N[C@H](CCCCN)C(=O)N[C@H](C(=O)N[C@@H](CCCCN)C(=O)N[C@@H](CCCCN)C(=O)N[C@@H](CC(C)C)C(=O)N[C@@H](CC(C)C)C(N)=O)[C@@H](C)CC)[C@@H](C)CC [CAR3-PEG-DK5] (H-[βAla]H[βAla]H[βAla]H[AEEA]IKKILS[dK]IKKLL-NH2; N-terminus assumed) | >190 µg/mL | >190 µg/mL | >190 µg/mL | 110 µg/mL (≈ 50.1 µM) | –
CC[C@H](C)[C@H](NC(=O)COCCOCCNC(=O)[C@H](Cc1c[nH]cn1)NC(=O)CCN)C(=O)N[C@@H](CCCCN)C(=O)N[C@@H](CCCCN)C(=O)N[C@H](C(=O)N[C@@H](CC(C)C)C(=O)N[C@@H](CO)C(=O)N[C@H](CCCCN)C(=O)N[C@H](C(=O)N[C@@H](CCCCN)C(=O)N[C@@H](CCCCN)C(=O)N[C@@H](CC(C)C)C(=O)N[C@@H](CC(C)C)C(N)=O)[C@@H](C)CC)[C@@H](C)CC [CAR-PEG-DK5] (H-[βAla]H[AEEA]IKKILS[dK]IKKLL-NH2; N-terminus assumed) | >190 µg/mL | >190 µg/mL | >190 µg/mL | 40 µg/mL (≈ 22.5 µM) | –
CC[C@H](C)[C@H](NC(=O)COCCOCCNC(=O)CNC(=O)[C@@H]1CCCN1C(=O)[C@H](CCC(=O)O)NC(=O)[C@H](CC(C)C)NC(=O)CNC(=O)[C@@H](N)CCC(=O)O)C(=O)N[C@@H](CCCCN)C(=O)N[C@@H](CCCCN)C(=O)N[C@H](C(=O)N[C@@H](CC(C)C)C(=O)N[C@@H](CO)C(=O)N[C@H](CCCCN)C(=O)N[C@H](C(=O)N[C@@H](CCCCN)C(=O)N[C@@H](CCCCN)C(=O)N[C@@H](CC(C)C)C(=O)N[C@@H](CC(C)C)C(N)=O)[C@@H](C)CC)[C@@H](C)CC [COMB1-PEG-DK5] (H-EGLEPG[AEEA]IKKILS[dK]IKKLL-NH2; N-terminus assumed) | >190 µg/mL | >190 µg/mL | >190 µg/mL | >190 µg/mL | –
CC[C@H](C)[C@H](N)C(=O)N[C@@H](CCCCN)C(=O)N[C@@H](CCCCN)C(=O)N[C@H](C(=O)N[C@@H](CC(C)C)C(=O)N[C@@H](CO)C(=O)N[C@H](CCCCN)C(=O)N[C@H](C(=O)N[C@@H](CCCCN)C(=O)N[C@@H](CCCCN)C(=O)N[C@@H](CC(C)C)C(=O)N[C@@H](CC(C)C)C(=O)NCCOCCOCC(=O)N[C@@H](Cc1ccc(O)cc1)C(=O)N[C@H](C)C(=O)NCC(=O)N[C@@H](Cc1ccccc1)C(=O)N[C@@H](CC(C)C)C(=O)N[C@@H](CCCNC(=N)N)C(N)=O)[C@@H](C)CC)[C@@H](C)CC [DK5-PEG-DAL] (H-IKKILS[dK]IKKLL[AEEA]Y[dA]GFLR-NH2; N-terminus and C-terminus assumed) | – | – | – | – | inhibition of USA300 growth relative to DAL-PEG-DK5 (S. aureus USA300 [1]; comparison of MIC 160 vs 40 μg/mL): four times less; α-helical content ([3]; circular dichroism, 30 mM SDS in water): 20%
CC[C@H](C)[C@H](N)C(=O)N[C@@H](CCCCN)C(=O)N[C@@H](CCCCN)C(=O)N[C@H](C(=O)N[C@@H](CC(C)C)C(=O)N[C@@H](CO)C(=O)N[C@H](CCCCN)C(=O)N[C@H](C(=O)N[C@@H](CCCCN)C(=O)N[C@@H](CCCCN)C(=O)N[C@@H](CC(C)C)C(=O)N[C@@H](CC(C)C)C(N)=O)[C@@H](C)CC)[C@@H](C)CC [DK5] (H-IKKILS[dK]IKKLL-NH2; N-terminus assumed) | >190 µg/mL | – | – | – | cationic charge [3]: +6
CC(=O)NC[C@H]1CN(c2ccc(N3CCOCC3)c(F)c2)C(=O)O1 [Linezolid, linezolid] | – | – | – | – | MIC (S. aureus USA300 [4]): 1 µg/mL (≈ 2.96 µM)
CN[C@H](CC(C)C)C(=O)N[C@H]1C(=O)N[C@@H](CC(N)=O)C(=O)N[C@H]2C(=O)N[C@H]3C(=O)N[C@H](C(=O)N[C@H](C(=O)O)c4cc(O)cc(O)c4-c4cc3ccc4O)[C@H](O)c3ccc(c(Cl)c3)Oc3cc2cc(c3O[C@@H]2O[C@H](CO)[C@@H](O)[C@H](O)[C@H]2O[C@H]2C[C@](C)(N)[C@H](O)[C@H](C)O2)Oc2ccc(cc2Cl)[C@H]1O [Vancomycin, vancomycin] | – | – | – | – | MIC (S. aureus USA300 [4]): 1 µg/mL (≈ 0.69 µM)
temporin A | – | – | – | – | MIC [5]: 8 µM; killed intracellular MRSA ([5]; at 2 × MIC): 20%
temporin B | – | – | – | – | MIC [5]: 16 µM; killed intracellular MRSA ([5]; at 4 × MIC): 40%

— article PMC6801822, “The Bactericidal Activity of Temporin Analogues Against Methicillin Resistant Staphylococcus aureus” (International Journal of Molecular Sciences, 2019)
